Measurements taken from PubChem BioAssay (NCI).
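Compound exposure: 48 hours, 5 concentrations, 96-well plates. Abbreviation: GI50, concentration required for 50% inhibition of growth. TGI is the concentration that stops growth completely.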 Where a SMILES comes first, the peptide text is derived from it. The star is where a group is joined. Cbz = O=C(OCc1ccccc1)*

Assays:
Experiment in all cases: inhibition of tumour cell growth, NCI panel, 48 h
U251 CNS = system: U251 CNS
MCF7 breast = system: MCF7 breast
MDA-N = system: MDA-N
IGROV1 ovarian = system: IGROV1 ovarian
MDA-MB-231 breast = system: MDA-MB-231 breast
UACC-257 melanoma = system: UACC-257 melanoma
SF-539 CNS = system: SF-539 CNS
HOP-62 NSCLC = system: HOP-62 NSCLC
K-562 leukemia = system: K-562 leukemia
UACC-62 melanoma = system: UACC-62 melanoma

Row | SMILES | TGI (U251 CNS) | TGI (MCF7 breast) | TGI (MDA-N) | TGI (IGROV1 ovarian) | TGI (MDA-MB-231 breast) | TGI (UACC-257 melanoma) | TGI (SF-539 CNS) | TGI (HOP-62 NSCLC) | TGI (K-562 leukemia) | TGI (UACC-62 melanoma) | GI50 (U251 CNS) | GI50 (MCF7 breast) | GI50 (IGROV1 ovarian) | GI50 (MDA-MB-231 breast) | GI50 (UACC-257 melanoma) | GI50 (SF-539 CNS) | GI50 (HOP-62 NSCLC) | GI50 (K-562 leukemia) | GI50 (UACC-62 melanoma)
1 | CCOC(=O)c1cn2c(ccc3sc4ccccc4c(=O)c32)n1 | > 100 µM | > 100 µM | > 100 µM | > 100 µM | > 100 µM | > 100 µM | > 100 µM | > 100 µM | > 100 µM | – | – | – | – | – | – | – | – | – | –
2 | CCCCCCCCCCCCCCCCOc1ccc(/C=C/C2=[N+](CCCl)CCO2)cc1 | > 100 µM | > 100 µM | > 100 µM | > 100 µM | 83.5 µM | > 100 µM | > 100 µM | > 100 µM | > 100 µM | > 100 µM | – | – | – | – | – | – | – | – | –
3 | CC(C)N(/C(F)=N\C(=O)Nc1ccccc1C(F)(F)F)C(C)C | > 100 µM | > 100 µM | > 100 µM | > 100 µM | > 100 µM | > 100 µM | > 100 µM | > 100 µM | > 100 µM | – | – | – | – | – | – | – | – | – | –
4 | O=C1CCCC2=C1CC1=C(CCCC1=O)N2c1cccc([N+](=O)[O-])c1 | > 100 µM | > 100 µM | – | > 100 µM | – | – | > 100 µM | – | > 100 µM | > 100 µM | – | – | – | – | – | – | – | – | –
5 | O=c1[nH]c(=O)n2n1C1C=CC2CC1 | > 100 µM | > 100 µM | > 100 µM | > 100 µM | > 100 µM | > 100 µM | > 100 µM | > 100 µM | > 100 µM | > 100 µM | – | – | – | – | – | – | – | – | –
6 | O=[N+]([O-])c1ccc(O)c(C=NCC2CCCN3CCCCC23)c1 (centres undefined) | – | > 100 µM | > 100 µM | > 100 µM | > 100 µM | > 100 µM | > 100 µM | > 100 µM | – | 78.8 µM | – | – | – | – | – | – | – | – | –
7 | COc1ccc(-c2nc3cc(C(F)(F)F)ccc3n2CC2CCCN3CCCCC23)cc1 (centres undefined) | 30.7 µM | 25.9 µM | 33.4 µM | 26.9 µM | 27.7 µM | 26.7 µM | 30.5 µM | 38.5 µM | 28 µM | – | – | – | – | – | – | – | – | – | –
8 | CCOC(=O)N1N(c2ccccc2)C(=O)C1(c1ccccc1)c1ccccc1 | > 100 µM | > 100 µM | > 100 µM | > 100 µM | > 100 µM | > 100 µM | > 100 µM | 46 µM | > 100 µM | > 100 µM | – | – | – | – | – | – | – | – | –
9 | CN(C)/C=C/c1c2c(nc3ccccc13)C(=O)c1ccccc1C2=O | 4.66 µM | – | 0.957 µM | 4.71 µM | 4.26 µM | 1.77 µM | 5.4 µM | 1.32 µM | > 100 µM | 0.739 µM | – | – | – | – | – | – | – | – | –
10 | CCN(CC)CC(=O)Nc1ccc2c(c1)C(=O)c1ccc(NC(=O)CN(CC)CC)cc1C2=O | 47 µM | – | – | 51.6 µM | – | 97.4 µM | 30.9 µM | 74.1 µM | 67.8 µM | > 100 µM | – | – | – | – | – | – | – | – | –
11 | CCOC(=O)CNC(=O)C(C)NC(=O)C(NC(=O)OCc1ccccc1)C(C)C (stereo not drawn) (Cbz-Val-Ala-Gly-OEt; configuration not given here) | > 100 µM | > 100 µM | > 100 µM | > 100 µM | – | > 100 µM | > 100 µM | > 100 µM | > 100 µM | > 100 µM | – | – | – | – | – | – | – | – | –
12 | C[C@]12CCc3sc(-c4cccc(F)c4)nc3C1=CC[C@@H]1[C@@H]2CC[C@]2(C)C(=O)CC[C@@H]12 | 13.6 µM | 4.26 µM | – | 4.88 µM | 7.34 µM | > 100 µM | 2.48 µM | 11.8 µM | 9.08 µM | 5.7 µM | 2000 nM | 1780 nM | 2090 nM | 2600 nM | 6.12 µM | 1040 nM | 3.1 µM | 1820 nM | 1900 nM
13 | COc1cc2cc3c4c(cc(OC)c(OC)c4c2cc1OC)CCN3C(=O)CCC(=O)O | > 100 µM | – | – | > 100 µM | – | > 100 µM | > 100 µM | > 100 µM | > 100 µM | > 100 µM | – | – | – | – | – | – | – | – | –
14 | CCOP(C)(=O)/C(Cc1ccc(OC)c(OC)c1)=N\O (centres undefined) | > 100 µM | > 100 µM | > 100 µM | > 100 µM | > 100 µM | – | > 100 µM | > 100 µM | > 100 µM | > 100 µM | – | – | – | – | – | – | – | – | –
15 | Cc1nn(-c2ccccc2)c2nc3ccc(Cl)cc3c(-c3ccccc3)c12 | > 100 µM | > 100 µM | > 100 µM | > 100 µM | > 100 µM | – | – | > 100 µM | – | > 100 µM | – | – | – | – | – | – | – | – | –
16 | NC(=O)CNC(=O)[C@@H]1C[C@@H](OCCC(=O)O)CN1C(=O)OCc1ccccc1 | > 100 µM | > 100 µM | > 100 µM | > 100 µM | > 100 µM | > 100 µM | – | > 100 µM | > 100 µM | > 100 µM | – | – | – | – | – | – | – | – | –
17 | CC(=O)OC(=C(C#N)C#N)c1nccnc1C(C)=O | > 20 µM | > 20 µM | 17.3 µM | > 20 µM | > 20 µM | > 20 µM | > 20 µM | – | > 20 µM | > 20 µM | – | – | – | – | – | – | – | – | –
18 | O=S(=O)(O)c1ccccc1N=Nc1ccc(N=Nc2c(O)ccc3ccccc23)c(S(=O)(=O)O)c1 | > 100 µM | – | – | > 100 µM | > 100 µM | > 100 µM | – | > 100 µM | > 100 µM | > 100 µM | – | – | – | – | – | – | – | – | –
19 | COc1cc2cc(C(=O)N3CC(CCl)c4c3cc(O)c3ccccc43)[nH]c2c(OC)c1OC (centres undefined) | 24.6 µM | – | – | – | – | – | < 0.005 µM | – | > 50 µM | 0.291 µM | – | – | – | – | – | – | – | – | –
20 | CCc1c(C)c2ccc(OCC(=O)N=Nc3c(O)[nH]c4ccccc34)c(C)c2oc1=O | – | > 33.3 µM | – | – | – | – | > 33.3 µM | – | > 33.3 µM | > 33.3 µM | – | 992 nM | – | – | – | > 33300 nM | – | 1190 nM | –
21 | Cc1ccc([N+](=O)[O-])cc1S(=O)(=O)Nc1ccc(C2=NN(S(=O)(=O)c3cc([N+](=O)[O-])ccc3C)C(c3ccco3)C2)cc1 (centres undefined) | – | > 100 µM | > 100 µM | > 100 µM | – | 45.6 µM | > 100 µM | > 100 µM | > 100 µM | > 100 µM | – | – | – | – | – | – | – | – | –
22 | COc1cccc(C=C2N=C(C)N(n3c(-c4ccccc4)nc4ccccc4c3=O)C2=O)c1 | – | > 100 µM | > 100 µM | > 100 µM | > 100 µM | > 100 µM | > 100 µM | > 100 µM | > 100 µM | > 100 µM | – | – | – | – | – | – | – | – | –
23 | CC(=O)C1=C(C)N(c2ccccc2)C2(O)C=CC(=O)C3=C(O)c4ccccc4C(=O)C312 (centres undefined) | 40.7 µM | > 100 µM | – | 34.3 µM | 51 µM | 21 µM | 46.7 µM | 72.1 µM | > 100 µM | 34.1 µM | – | – | – | – | – | – | – | – | –
